These results are taken from patent US9593084B2 (Parion Sciences, Inc., priority 2012, dated 2017).

Data set [1] addresses T1, epithelial sodium channel (Canis lupus familiaris, UniProt A0A8I3MKE6+A0A8I3Q679+Q95165).
T1 construct: endogenous in cells; host or cells: primary canine bronchial epithelial cells cultured at air-liquid interface
T1 sequence (A0A8I3Q679 1-649): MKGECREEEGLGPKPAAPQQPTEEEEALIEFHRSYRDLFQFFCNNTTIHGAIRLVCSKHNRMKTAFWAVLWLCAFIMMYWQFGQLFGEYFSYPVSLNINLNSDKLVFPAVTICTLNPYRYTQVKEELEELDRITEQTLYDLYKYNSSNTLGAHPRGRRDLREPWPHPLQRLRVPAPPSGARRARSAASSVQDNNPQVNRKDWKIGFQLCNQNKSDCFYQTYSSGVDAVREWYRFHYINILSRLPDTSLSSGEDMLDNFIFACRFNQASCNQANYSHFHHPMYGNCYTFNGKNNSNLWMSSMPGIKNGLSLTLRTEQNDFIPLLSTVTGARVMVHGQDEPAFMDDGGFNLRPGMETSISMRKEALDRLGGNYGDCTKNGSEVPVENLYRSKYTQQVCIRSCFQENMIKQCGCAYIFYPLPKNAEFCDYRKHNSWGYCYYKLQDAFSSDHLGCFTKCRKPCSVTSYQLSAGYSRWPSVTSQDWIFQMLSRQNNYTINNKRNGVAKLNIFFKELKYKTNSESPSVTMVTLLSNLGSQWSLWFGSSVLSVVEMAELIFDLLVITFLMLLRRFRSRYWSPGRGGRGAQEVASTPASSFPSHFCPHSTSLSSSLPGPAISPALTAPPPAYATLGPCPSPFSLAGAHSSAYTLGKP
T1 sequence (Q95165 1-641): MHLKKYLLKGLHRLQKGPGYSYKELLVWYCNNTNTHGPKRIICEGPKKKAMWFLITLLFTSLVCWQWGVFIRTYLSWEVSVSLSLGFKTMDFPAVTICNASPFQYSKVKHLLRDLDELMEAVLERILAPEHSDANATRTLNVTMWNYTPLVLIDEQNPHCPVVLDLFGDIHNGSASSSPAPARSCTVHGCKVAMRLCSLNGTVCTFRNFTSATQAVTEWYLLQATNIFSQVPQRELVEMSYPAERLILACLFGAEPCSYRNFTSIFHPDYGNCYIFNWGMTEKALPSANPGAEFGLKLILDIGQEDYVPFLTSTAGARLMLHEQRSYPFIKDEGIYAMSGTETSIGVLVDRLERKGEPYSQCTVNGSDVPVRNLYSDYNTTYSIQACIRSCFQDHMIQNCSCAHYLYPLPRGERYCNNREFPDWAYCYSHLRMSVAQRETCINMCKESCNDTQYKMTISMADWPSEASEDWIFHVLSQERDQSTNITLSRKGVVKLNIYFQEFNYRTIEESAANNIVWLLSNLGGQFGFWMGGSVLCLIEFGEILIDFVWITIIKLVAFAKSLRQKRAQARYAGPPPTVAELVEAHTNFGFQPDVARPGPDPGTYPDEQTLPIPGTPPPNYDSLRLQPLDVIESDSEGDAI
T1 sequence (A0A8I3MKE6 1-646): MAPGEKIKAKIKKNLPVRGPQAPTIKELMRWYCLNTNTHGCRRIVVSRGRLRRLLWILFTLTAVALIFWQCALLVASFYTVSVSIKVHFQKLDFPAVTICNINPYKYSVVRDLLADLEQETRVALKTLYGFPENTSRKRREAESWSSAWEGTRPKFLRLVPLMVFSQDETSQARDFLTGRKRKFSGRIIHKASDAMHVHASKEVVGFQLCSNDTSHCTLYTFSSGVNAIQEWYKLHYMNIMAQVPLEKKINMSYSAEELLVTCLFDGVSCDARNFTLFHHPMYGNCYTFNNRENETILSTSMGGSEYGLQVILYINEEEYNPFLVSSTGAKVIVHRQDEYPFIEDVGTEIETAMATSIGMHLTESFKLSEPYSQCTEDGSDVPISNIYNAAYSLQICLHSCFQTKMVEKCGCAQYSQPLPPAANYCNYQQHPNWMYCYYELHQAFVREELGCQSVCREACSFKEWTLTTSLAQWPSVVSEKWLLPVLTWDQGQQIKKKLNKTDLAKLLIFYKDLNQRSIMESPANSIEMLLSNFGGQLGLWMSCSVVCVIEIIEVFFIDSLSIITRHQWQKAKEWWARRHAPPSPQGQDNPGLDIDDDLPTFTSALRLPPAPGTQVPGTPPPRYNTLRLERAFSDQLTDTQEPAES
Put plainly: Inhibition of short-circuit current (ISC) in airway epithelial monolayers in Ussing chambers. Format: cell-based, canine. The conditions noted are these: canine bronchial epithelial cells, short-circuit current; read-out: Potency of Sodium Channel Blockade IC50. The method, then:
One assay used to assess mechanism of action and/or potency of the compounds of the present invention involves the determination of lumenal drug inhibition of airway epithelial sodium currents measured under short circuit current (ISC) using airway epithelial monolayers mounted in Using chambers. Cells obtained from freshly excised human, dog, sheep or rodent airways are seeded onto porous 0.4 micron Snapwelff Inserts (CoStar), cultured at air-liquid interface (ALI) conditions in hormonally defined media, and assayed for sodium transport activity (ISC) while bathed in Krebs Bicarbonate Ringer (KBR) in Using chambers. All test drug additions are to the lumenal bath with half-log dose addition protocols (from 1×10^−11 M to 3×10^−5 M), and the cumulative change in ISC (inhibition) recorded. All drugs are prepared in dimethyl sulfoxide as stock solutions at a concentration of 1×10^−2 M and stored at −20° C. […] After the maximal concentration ([…]) is administered, the lumenal bath is exchanged three times with fresh drug-free KBR solution, and the resultant ISC measured after each wash for approximately 5 minutes in duration. Reversibility is defined as the percent return to the baseline value for sodium current after the third wash. All data from the voltage clamps are collected via a computer interface and analyzed off-line.
Dose-effect relationships for all compounds are considered and analyzed by the Prism 3.0 program.

For data set [2], the system named is human bronchial epithelial (HBE) cells. Put plainly: Airway surface liquid drug clearance and metabolism by human airway epithelium. The class given is in vitro ADME. The method, then:
The disappearance of 33 from the apical surface and airway epithelial metabolism were assessed in human bronchial epithelial (HBE) cells (Table 3). In these experiments 25 μL of a 25 μM solution of ENaC blocker was added to the apical surface of HBE cells grown at an air/liquid interface, and the drug and metabolite concentration in the apical and basolateral compartment was measured over 2 h by UPLC.
Therefore, the compounds of formula (I) have a longer half-life on mucosal surfaces compared to these know compounds as evidenced by the data shown in Table G. The disappearance of Compound 33 from the apical surface and airway epithelial metabolism were assessed in HBE and compared to Comparative Example 1 (Table H). In these experiments 25 μL of a 25 μM solution of ENaC blocker was added to the apical surface of HBE cells grown at an air/liquid interface, and the drug concentration in the apical and basolateral compartment was measured over 2 h by UPLC.

The mark [3] stands for this setting: HBE cells at air/liquid interface, 25 μL of 25 μM apical, mean ± SD.

Broadly, the IC50 is the concentration needed to halve the response being measured. Regarding `N=C(NCCCCc1ccc(C[C@H](N)C(=O)Nc2ccc(CCCN(C[C@H](O)[C@@H](O)[C@H](O)[C@H](O)CO)C[C@H](O)[C@@H](O)[C@H](O)[C@H](O)CO)cc2)c2ccccc12)NC(=O)c1nc(Cl)c(N)nc1N` [Compound 33, 3,5-diamino-N—(N-(4-(4-((S)-2-amino-3-(4-(3-(bis((2S,3R,4R,5R)-2,3,4,5,6-pentahydroxyhexyl)amino)propyl)phenylamino)-3-oxopropyl)naphthalen-1-yl)butyl)carbamimidoyl)-6-chloropyrazine-2-carboxamide], in data set [1], the IC50 stood at 21.8 nM. In data set [2] (setting [3]), the “% of Apical Mass as Metabolites (2 h)” value is listed as 4% and the “% on Basolateral Side as Metabolites (2 h)” value worked out at 32%. For the same compound, the “fate on the apical side after 2 h incubation” value in data set [2] (HBE cells, apical surface, 37° C.) is reported as “mostly unmetabolized on the apical side”.
